Drawing on PMC2099433, “The binding site for neohesperidin dihydrochalcone at the human sweet taste receptor” (BMC Structural Biology, 2007), this text covers EC50 and Emax for two compounds.

The target of test [1] is T1, hTAS1R2 + hTAS1R3 R725M^5.38 (Homo sapiens, UniProt Q7RTX0+Q8TE23, R725M).
T1 construct: expressed in transfected cells; host or cells: HEK293T cells stably expressing G16Gust44
T1 sequence (Q7RTX0 21-852 R725M): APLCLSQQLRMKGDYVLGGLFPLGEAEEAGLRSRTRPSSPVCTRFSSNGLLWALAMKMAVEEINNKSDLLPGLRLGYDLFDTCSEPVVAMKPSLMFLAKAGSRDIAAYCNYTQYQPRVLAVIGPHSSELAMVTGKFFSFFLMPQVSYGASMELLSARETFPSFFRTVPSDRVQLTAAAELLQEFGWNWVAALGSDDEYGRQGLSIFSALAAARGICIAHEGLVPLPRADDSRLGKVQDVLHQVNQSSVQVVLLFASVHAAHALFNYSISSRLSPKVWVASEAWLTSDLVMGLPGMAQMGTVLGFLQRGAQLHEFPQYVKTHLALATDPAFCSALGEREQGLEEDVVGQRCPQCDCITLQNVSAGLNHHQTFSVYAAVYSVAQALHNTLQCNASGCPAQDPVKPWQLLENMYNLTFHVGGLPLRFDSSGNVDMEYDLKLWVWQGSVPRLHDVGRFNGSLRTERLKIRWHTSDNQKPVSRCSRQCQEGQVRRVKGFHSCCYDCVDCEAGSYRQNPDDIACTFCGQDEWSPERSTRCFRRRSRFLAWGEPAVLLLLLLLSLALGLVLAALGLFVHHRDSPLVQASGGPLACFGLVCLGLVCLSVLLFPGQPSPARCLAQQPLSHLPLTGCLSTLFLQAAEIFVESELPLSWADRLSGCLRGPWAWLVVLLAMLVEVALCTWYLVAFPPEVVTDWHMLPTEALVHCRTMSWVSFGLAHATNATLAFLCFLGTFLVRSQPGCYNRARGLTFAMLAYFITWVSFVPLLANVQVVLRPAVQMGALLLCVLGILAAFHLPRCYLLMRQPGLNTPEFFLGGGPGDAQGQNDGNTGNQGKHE
T1 sequence (Q8TE23 20-839): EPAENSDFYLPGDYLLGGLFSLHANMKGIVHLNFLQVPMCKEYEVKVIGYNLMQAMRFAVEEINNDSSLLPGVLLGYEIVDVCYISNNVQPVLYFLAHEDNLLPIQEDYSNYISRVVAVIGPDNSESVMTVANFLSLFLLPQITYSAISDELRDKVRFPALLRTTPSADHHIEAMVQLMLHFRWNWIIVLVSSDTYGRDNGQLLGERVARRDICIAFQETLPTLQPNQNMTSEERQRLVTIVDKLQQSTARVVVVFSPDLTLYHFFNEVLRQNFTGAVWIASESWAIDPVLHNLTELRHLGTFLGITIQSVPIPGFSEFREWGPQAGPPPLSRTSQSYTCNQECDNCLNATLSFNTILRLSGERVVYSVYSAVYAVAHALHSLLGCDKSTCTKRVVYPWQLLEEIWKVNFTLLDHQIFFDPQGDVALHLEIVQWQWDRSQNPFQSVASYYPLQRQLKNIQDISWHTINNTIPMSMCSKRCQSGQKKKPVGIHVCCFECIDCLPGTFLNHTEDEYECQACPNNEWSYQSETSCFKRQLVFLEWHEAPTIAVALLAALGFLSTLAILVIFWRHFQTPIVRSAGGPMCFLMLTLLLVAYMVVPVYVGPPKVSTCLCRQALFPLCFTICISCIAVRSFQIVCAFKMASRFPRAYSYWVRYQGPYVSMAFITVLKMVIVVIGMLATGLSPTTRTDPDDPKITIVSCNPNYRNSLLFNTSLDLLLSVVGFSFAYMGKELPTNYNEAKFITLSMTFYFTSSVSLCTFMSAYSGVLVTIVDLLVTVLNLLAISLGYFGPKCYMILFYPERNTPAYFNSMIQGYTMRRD
The test can be described thus: Calcium response (FLIPR), hTAS1R3 mutant coexpressed with hTAS1R2. In kind it is cell-based. As to conditions: variant R725M^5.38; for Emax: read-out: maximal signal (% of wt). Put shortly:
(§1)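 Calcium mobilization was measured by FLIPR in Fluo4-AM-loaded HEK293T cells coexpressing G16Gust44 with the tagged receptor pair. Signals had mock responses removed and were given as ΔF/F.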

For test [2], the target named is T2, hTAS1R2 + hTAS1R3 F778A^6.51 (Homo sapiens, UniProt Q7RTX0+Q8TE23, F778A).
T2 construct: expressed in transfected cells; host or cells: HEK293T cells stably expressing G16Gust44
T2 sequence (Q8TE23 20-839): T1 sequence (Q8TE23 20-839)
T2 sequence (Q7RTX0 21-852 F778A): T1 sequence (Q7RTX0 21-852 R725M) with M705R, F758A
Described as above. In kind it is cell-based. As to conditions: variant F778A^6.51; for Emax: read-out: maximal signal (% of wt). In a few lines:
as §1

Molecules are shown by their SMILES. Substitutions are numbered along the chain they refer to. Where a SMILES comes first, the peptide text is derived from it.

By EC50 is commonly meant the concentration giving half of the maximal effect.

For `COc1ccc(CCC(=O)c2c(O)cc(O[C@@H]3O[C@H](CO)[C@@H](O)[C@H](O)[C@H]3O[C@@H]3O[C@@H](C)[C@H](O)[C@@H](O)[C@H]3O)cc2O)cc1O` [NHDC, neohesperidin dihydrochalcone], the 50% effective concentration (EC50) in test [1] amounted to 1.3 ± 0.4 mM; in test [2], 1.5 ± 0.4 mM. The results for the Emax in test [1] and in test [2] were 64 ± 14% and 50 ± 18%, respectively.
For `COC(=O)[C@H](Cc1ccccc1)NC(=O)[C@@H](N)CC(=O)O` [aspartame] (HELM PEPTIDE1{D.F.[CO[*:1]]}$$$$V2.0), in that order: 1.5 ± 0.7 mM, 1.2 ± 0.1 mM, 56 ± 1% and 80 ± 80%.
